Patent publication US20240398783A1, “Compounds and Pharmaceutical Compositions Comprising Inhibitors of Amyloid Peptide Interactions with Glycosaminoglycans, Methods of Treatment and Use Thereof” (Gismo Therapeutics, Inc., priority 2021, published 2024)
Where a name gives a salt, the structure may show the parent alone.

molecular target: T1, SAA binding to purified THP-1 cell membranes (Homo sapiens, UniProt P0DJI8); assay: Inhibition of SAA binding to purified cell membranes (ELISA); conditions: purified cell membranes (THP-1 per Example 54), hydrochloride, read-out: Serum Amyloid A/Membrane Activity (IC-50)
T1 sequence (P0DJI8 19-122): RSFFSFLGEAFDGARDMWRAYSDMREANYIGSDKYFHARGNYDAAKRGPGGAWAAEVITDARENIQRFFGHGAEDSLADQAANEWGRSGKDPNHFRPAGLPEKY
Procedure: THP-1 (human acute monocyte leukemia cell line; ATCC cat. no. TIB-202) cell membranes were prepared by differential centrifugation as follows. THP-1 cell was grown in RPMI 1640 media (GIBCO Cat. No. 21875034, supplemented with 10% FBS) at 37 degree Celsius 5% CO2 atmosphere, harvested, and stored at −80 degree Celsius. Frozen THP-1 cells were homogenized in HEPES-Buffered sucrose (0.32M sucrose, 4 mM HEPES pH7.4, protease inhibitors) with a motor driven glass-teflon homogenizer. After removing nuclear and cell debris by centrifugation of homogenates at 1,000×g for 10 min at 4 degree Celsius, post-nuclear supernatant was centrifuged at 10,000×g for 15 minutes to remove mitochondrial fraction. Resulting supernatant was centrifuged at 100,000×g for 30 minutes to yield the crude membrane pellet. Crude membrane pellet was re-suspended in 0.32M sucrose, then centrifuged again at 100,000 xg for 30 minutes to yield washed membrane pellet. Membrane pellet was resuspended in sterile PBS (pH7.4), quickly frozen and kept in aliquots at −80 degrees Celsius. This preparation contains mostly cell membranes. Protein concentration was measured with BCA protein assay kit (Pierce Cat. No. 23227). The binding assay was performed as described in Example 48, with the following modifications. Following to coating the plates with purified human THP-1 cell membranes at 0.01 mg/ml concentration, plates were washed and blocked with 2% milk as described. The compounds were dissolved in DMSO at 10 mM final concentration and further diluted prior to assay. DMSO concentration in the screening well was up to 2%. Individual compounds were co-incubated with SAA on plates coated with cell membranes. SAA from PreProtech (NJ, USA, Cat. No. 300-53) was dissolved in DMSO, quickly frozen and kept in aliquots at −80 degrees Celsius. SAA dissolved in Tris Buffer (pH 6.5, supplemented with BSA, 0.1%) was added to the ELISA plate (100 μl per well) and incubated for 2 hours at RT with gentle shaking. Following the incubation, the plate was washed with de-ionized water and three times with TBS (pH 6.5) plus Tween. Bound SAA was detected by Anti-SAA Monoclonal Antibody (R&D System Cat. No. MAB30192, followed by secondary anti-IgG antibody conjugated to HRP (R&D System, Cat. No. HAF007). Antibody was diluted in TBS antibody buffer (pH6.5 supplemented with 1% BSA). Following each incubation with antibody, the plate was washed with de-ionized water and three times with TBS (pH6.5) wash buffer containing 0.1% Tween. Following to color development with TMB, as described in Example 49, the Optical Density of the samples was measured at 450 nm using an ELISA plate reader. Following color development, the % inhibition compared to control (no compound, DMSO control) for every compound was determined.
For each compound IC-50 value is shown in μM (micromolar). In some cases IC-50 was not measured and % inhibition at 30 μM compound concentration is shown instead. […] All assays were done on 96-well plates in duplicates and experiments were repeated at least twice. In the Table, the following abbreviations are used: A: compounds that inhibited>30% at 30 μM concentrations; B: compounds that inhibited<30% at 30 μM concentrations; NT: compounds for which inhibition curve was not obtained.

Compound	IC50
C/C(=N\Nc1ncnc2cc(Cl)ccc12)c1ccc(-n2cc(C)nc2C)nc1 [Compound 27, (E)-7-chloro-4-(2-(1-(6-(2,4-dimethyl-1H-imidazol-1-yl)pyridin-3-yl)ethylidene)hydrazineyl)quinazoline hydrochloride]	14 µM

same assay, conditions: purified cell membranes (THP-1 per Example 54), read-out: Serum Amyloid A/Membrane Activity (IC-50)

Compound	IC50
C/C(=N\Nc1nncc2cc(Cl)ccc12)c1ccc(-n2cc(C)nc2C)nc1 [Compound 24, (E)-6-chloro-1-(2-(1-(6-(2,4-dimethyl-1H-imidazol-1-yl)pyridin-3-yl)ethylidene)hydrazineyl)phthalazine]	8.22 µM
C/C(=N\Nc1ncnc2cc(F)ccc12)c1ccc(-n2cnc(C)c2C)nc1 [Compound 21, (E)-4-(2-(1-(6-(4,5-dimethyl-1H-imidazol-1-yl)pyridin-3-yl)ethylidene)hydrazineyl)-7-fluoroquinazoline]	47.8 µM
Clc1ccc2c(Nc3ccc(-n4ccnc4)nc3)ncnc2c1 [Compound 41, N-(6-(1H-imidazol-1-yl)pyridin-3-yl)-7-chloroquinazolin-4-amine]	13.2 µM
CC(=NNc1ncnc2cc(Cl)ccc12)c1ccnc(-n2cnc(C)c2C)c1 [Compound 28, 7-chloro-4-(2-(1-(2-(4,5-dimethyl-1H-imidazol-1-yl)pyridin-4-yl)ethylidene)hydrazineyl)quinazoline]	22.9 µM
C/C(=N\Nc1ncnc2cc(Cl)ccc12)c1ccc(-n2cc(C)nc2C)nc1 [Compound 18, (E)-7-chloro-4-(2-(1-(6-(2,4-dimethyl-1H-imidazol-1-yl)pyridin-3-yl)ethylidene)hydrazineyl)quinazoline phosphoric acid salt]	24 µM
Cc1cc(-n2ccnc2)ccc1/C=N/Nc1ccnc2cc(Cl)ccc12 [Compound 1, (E)-4-((E)-(4-(1H-imidazol-1-yl)-2-methylbenzylidene)hydrazono)-7-chloro-1,4-dihydroquinoline]	12.3 µM

same assay, conditions: read-out: Serum Amyloid A/Membrane Activity (IC-50), purified cell membranes (THP-1 per Example 54)

Compound	IC50
CC(=NNc1ccnc2cc(Cl)ccc12)c1ccc(-n2ccnc2)cc1 [Compound 36, 4-(2-(1-(4-(1H-imidazol-1-yl)phenyl)ethylidene)hydrazineyl)-7-chloroquinoline phosphate]	15.3 µM
Cc1ncn(-c2ccc(Nc3ncnc4cc(Cl)ccc34)cn2)c1C [Compound 25, 7-chloro-N-(6-(4,5-dimethyl-1H-imidazol-1-yl)pyridin-3-yl)quinazolin-4-amine]	22 µM
Clc1ccc2c(Nc3ccc(-n4cncn4)nc3)ccnc2c1 [Compound 44, N-(6-(1H-1,2,4-triazol-1-yl)pyridin-3-yl)-7-chloroquinolin-4-amine]	11.4 µM
Cc1ncn(-c2ccc(/C=N\Nc3ncnc4cc(Cl)ccc34)cn2)c1C [Compound 15, 7-chloro-4-(2-((6-(4,5-dimethyl-1H-imidazol-1-yl)pyridin-3-yl)methylene)hydrazineyl)quinazoline hydrochloride]	32.5 µM
Clc1ccc2c(N/N=C/c3ccc(-n4ccnc4)cc3)ccnc2c1 [Compound 38, 4-(2-(4-(1H-imidazol-1-yl)benzylidene)hydrazineyl)-7-chloroquinoline dihydrochloride]	23.6 µM
COc1cc(Nc2nncc3cc(Cl)ccc23)cnc1-n1cnc(C)c1C [Compound 31, 6-chloro-N-(6-(4,5-dimethyl-1H-imidazol-1-yl)-5-methoxypyridin-3-yl)phthalazin-1-amine phosphoric acid salt]	70.8 µM
Clc1ccc2c(Nc3ccc(-n4cncn4)nc3)ncnc2c1 [Compound 34, N-(6-(1H-1,2,4-triazol-1-yl)pyridin-3-yl)-7-chloroquinazolin-4-amine phosphoric acid salt]	8.66 µM
COc1cc2nccc(N/N=C/c3ccc(-n4ccnc4)c(OC)c3)c2cc1OC [Compound 13, (E)-4-(2-(4-(1H-imidazol-1-yl)-3-methoxybenzylidene)hydrazineyl)-6,7-dimethoxyquinoline phosphate]	44.5 µM
C/C(=N\Nc1ncnc2cc(Cl)ccc12)c1ccc(-n2cnc(C)c2C)nc1 [Compound 16, 7-chloro-4-(2-(1-(6-(4,5-dimethyl-1H-imidazol-1-yl)pyridin-3-yl)ethylidene)hydrazineyl)quinazoline phosphate]	9.93 µM
Clc1ccc2c(N/N=C/c3ccc(-n4ccnc4)nc3)ccnc2c1 [Compound 14, (E)-4-(2-((6-(1H-imidazol-1-yl)pyridin-3-yl)methylene)hydrazineyl)-7-chloroquinoline hydrochloride]	27.5 µM
